In the NIST ThermoML archive (doi:10.1021/je060501l):
± gives the expanded uncertainty stated by the source.

Settings: Liquid

vapor or sublimation pressure (273.15 K) [kPa] | vapor or sublimation pressure (283.15 K) [kPa] | vapor or sublimation pressure (293.15 K) [kPa] | vapor or sublimation pressure (303.15 K) [kPa] | vapor or sublimation pressure (313.15 K) [kPa] | SMILES
265.8 ± 8.6 | 372.8 ± 12 | 513.3 ± 16 | 689.9 ± 22 | 909.4 ± 28 | CC(F)F [1,1-difluoroethane]
472.5 ± 15 | 633.9 ± 20 | 832.94 ± 26 | 1077 ± 34 | 1370 ± 43 | CCC [propane]
